The values that follow come from patent US20200170983A1, “METHODS FOR THE TREATMENT OF BLADDER CANCER” (Cipla Limited, priority 2015, published 2020).

Read-outs that look alike come from different tables or passages of the source.

For assay [1], the system named is 5637. The experiment in a line: In vitro 2D assay (CellTiter-Blue cell viability). It counts as cell-based, human. An excerpt:
(§1) In the present study the human bladder cancer cell lines BXF 1036, BXF 1218, BXF 1352, 5637 and T24 were used. BXF 1036, BXF 1218 and BXF 1352 were established at Oncotest from the corresponding human patient derived xenograft. T24 was purchased from ATCC (Rockville, Md., USA) and 5637 was from DSMZ (Braunschweig, Germany). Authenticity of cell lines was confirmed at the DSMZ by STR (short tandem repeat) analysis, a PCR based DNA-fingerprinting methodology. Cell lines were routinely passaged once or twice weekly and maintained in culture for up to 20 passages. All cells were grown at 37° C. in a humidified atmosphere with 5% CO2 in RPMI 1640 medium (25 mM HEPES, with L-glutamine, #FG1385, Biochrom, Berlin, Germany) supplemented with 10% (v/v) fetal calf serum (Sigma, Taufkirchen, Germany) and 0.1 mg/mL gentamicin (Life Technologies, Karlsruhe, Germany).
(§2) The CellTiter-Blue® Cell Viability Assay (#G8081, Promega) was used according to manufacturer's instructions. Briefly, cells were harvested from exponential phase cultures, […] on the cell line's growth rate. After a 24 h recovery period to allow the cells to resume exponential growth, test compounds were added. Compounds were applied at 9 concentrations in half-log increments in duplicate and treatment continued for 96 h. After 96 h treatment of cells, 20 μL/well CellTiter-Blue® reagent was added.
(§3) Following an incubation period of up to four hours, fluorescence (FU) was measured by using the Enspire Multimode Plate Reader (excitation λ=531 nm, emission λ=615 nm). For calculations, the mean values of duplicate/sixfold (untreated control) data were used. Sigmoidal concentration-response curves were fitted to the data points (T/C values) obtained for each cell line using 4 parameter non-linear curve fit (Oncotest Warehouse Software).

Assay [2] concerns BXF 1036. The assay can be described thus: In vitro 2D assay (CellTiter-Blue cell viability). It counts as cell-based, human. The following applies: BXF 1036, 96 h treatment.
From the text: as §1, §2, §3

In assay [3] the test system is BXF 1218. The assay can be described thus: In vitro 2D assay (CellTiter-Blue cell viability). It counts as cell-based, human. The settings on record: BXF 1218, 96 h treatment.
From the text: as §1, §2, §3

For assay [4], the system named is BXF 1352. The assay can be described thus: In vitro 2D assay (CellTiter-Blue cell viability). The settings on record: BXF 1352, 96 h treatment. It counts as cell-based, human.
From the text: as §1, §2, §3

In assay [5] the test system is T24. The assay can be described thus: In vitro 2D assay (CellTiter-Blue cell viability). It counts as cell-based, human.
From the text: as §1, §2, §3

For assay [6], the system named is five selected human bladder cancer cell lines. The assay can be described thus: In vitro 2D assay, mean over the panel. It counts as cell-based.
From the text: as §1, §2, §3

Assay [7] relates to BXF 1036. The assay can be described thus: In vitro 3D clonogenic assay (colony formation in semi-solid medium). The following applies: for IC50: BXF 1036, absolute IC50. It counts as cell-based, human. On the procedure:
(§4) The clonogenic assay was carried out in a 96 well plate format using ultra low attachment plates. For each test, cells were prepared as described above and assay plates were prepared as follows: each test well contained a layer of semi-solid medium with tumor cells (50 μL), and a second layer of medium supernatant with or without test compound (100 μL). The cell layer consisted of 2·103 to 3·103 tumor cells per well, which were seeded in 50 μL/well cell culture medium (IMDM, supplemented with 20% (v/v) fetal calf serum, 0.01% (w/v) gentamicin, and 0.4% (w/v) agar. After 24 hours the test compounds were added after serial dilution in cell culture medium, and left on the cells for the duration of the experiment (continuous exposure, 100 μl drug overlay). Every plate included six untreated control wells and drug-treated groups in duplicate at 9 concentrations. Cultures were incubated at 37° C. and 7.5% CO2 in a humidified atmosphere for 8 to 13 days and monitored closely for colony growth using an inverted microscope. Within this period, ex vivo tumor growth led to the formation of colonies with a diameter of >50 μm. At the time of maximum colony formation, counts were performed with an automatic image analysis system (Bioreader 5000-Wa Biosys GmbH). 48 hours prior to evaluation, vital colonies were stained with a sterile aqueous solution of 2-(4-iodophenyl)-3-(4-nitrophenyl)-5-phenyltetrazolium chloride (1 mg/ml, 100 μl/well).

Assay [8] concerns BXF 1218. Described as above. The settings on record: for IC50: BXF 1218, absolute IC50. It counts as cell-based, human. The protocol:
as §4

Assay [9] relates to BXF 1352. Described as above. It counts as cell-based, human. The settings on record: BXF 1352, absolute IC50. The protocol: as §4
Assay [10] concerns BXF 5637. The description is as above. It counts as cell-based, human. The settings on record: BXF 5637, absolute IC50. On the procedure: as §4
Assay [11] has as its system BXF T24. Described as above. It counts as cell-based, human. The settings on record: for IC50: BXF T24, absolute IC50. On the procedure: as §4
Assay [12] concerns 5 human tumor cell lines of bladder cancer. The experiment in a line: In vitro 3D clonogenic assay, mean over the panel. It counts as cell-based. The following applies: for IC50: colony formation; for IC50, Geo. Mean: geometric mean of five cell lines. The protocol:
as §4

For assay [13], the system named is BXF 1036L. The assay can be described thus: Combination study, 3D clonogenic assay, 5x5 matrix, Bliss independence. The settings on record: monotherapy controls of the 5x5 combination matrix, read-out: IC50, colony formation, single agent. It counts as cell-based, human. On the procedure:
(§5) The objective of this study was to assess anti-tumor efficacy of adapalene in combination with cisplatin in a 5×5 matrix combination format against various bladder cancer cell lines. Efficacy of the combinations was assessed by measuring anchorage-independent growth and in vitro tumor colony formation using a 3D clonogenic assay in cell lines BXF 1036L, BXF 1218L, and BXF T24.
(§6) The compounds were tested in bladder cell lines, namely BXF 1036L, BXF 1218L, and BXF T24. Cells lines of BXF 1036L and BXF 1218L were established at Oncotest in Freiburg from the corresponding patient-derived xenografts. BXF T24 cells were obtained from American Type Culture Collection (Rockville, Md., USA). Authenticity of cell lines was confirmed at the DSMZ by STR analysis.
(§7) Cell lines were routinely passaged once or twice weekly and maintained in culture for up to 20 passages. Cells were grown at 37° C. in a humidified atmosphere with 5% CO2 in RPMI 1640 medium (25 mM HEPES, with L-glutamine, Biochrom) supplemented with 10% (v/v) fetal calf serum and 0.1 mg/mL gentamicin. The percentage of viable cells was determined in a Neubauer-hemocytometer using trypan blue exclusion.
(§8) The clonogenic assay was carried out in a 96 well plate format using ultra low attachment plates. For each test cells were prepared as described above, and assay plates were prepared as follows: each test well contained a layer of semi-solid medium with tumor cells (50 μl), and a second layer of medium supernatant with or without test compounds (100 μl). The cell layer consisted of 5·10^3 to 7.5·10^3 tumor cells per well, which were seeded in 50 μl/well cell culture medium (IMDM, supplemented with 20% (v/v) fetal calf serum, 0.01% (w/v) gentamicin, and 0.4% (w/v) agar). After 24 h, the soft-agar layer was covered with 90 μl of the same culture medium without agar, and compounds were added after serial dilution in DMSO and transfer in cell culture medium and left on the cells for the duration of the experiment (continuous exposure, 100 μL total drug overlay). Every plate included six untreated control wells and drug-treated groups. Cultures were incubated at 37° C. and 7.5% CO2 in a humidified atmosphere for 8 to 13 days and monitored closely for colony growth using an inverted microscope. Within this period, ex vivo tumor growth led to the formation of colonies with a diameter of >50 μm. At the time of maximum colony formation, counts were performed with an automatic image analysis system (CellInsight NXT, Thermo Scientific). 48 hours prior to evaluation, vital colonies were stained with a sterile aqueous solution of 2-(4-iodophenyl)-3-(4-nitrophenyl)-5-phenyltetrazolium chloride (1 mg/ml, 100 μl/well).

The test system of assay [14] is BXF T24. Described as above. The settings on record: BXF T24, monotherapy controls of the 5x5 combination matrix, read-out: IC50, colony formation, single agent. It counts as cell-based, human. The protocol:
as §5, §6, §7, §8

In assay [15] the test system is BXF 1218L. The assay is described as above. It counts as cell-based, human. The following applies: monotherapy controls of the 5x5 combination matrix, read-out: IC50, colony formation, single agent. The protocol:
The objective of this study was to assess anti-tumor efficacy of adapalene in combination with cisplatin in a 5×5 matrix combination format against various bladder cancer cell lines. Efficacy of the combinations was assessed by measuring anchorage-independent growth and in vitro tumor colony formation using a 3D clonogenic assay in cell lines BXF […], BXF […], and BXF T24. […] The compounds were tested in bladder cell lines, namely BXF […], BXF […], and BXF T24. Cells lines of BXF […] and BXF […] were established at Oncotest in Freiburg from the corresponding patient-derived xenografts. BXF T24 cells were obtained from American Type Culture Collection (Rockville, Md., USA). Authenticity of cell lines was confirmed at the DSMZ by STR analysis. Cell lines were routinely passaged once or twice weekly and maintained in culture for up to 20 passages. Cells were grown at 37° C. in a humidified atmosphere with 5% CO2 in RPMI 1640 medium (25 mM HEPES, with L-glutamine, Biochrom) supplemented with 10% (v/v) fetal calf serum and 0.1 mg/mL gentamicin. The percentage of viable cells was determined in a Neubauer-hemocytometer using trypan blue exclusion. […] Cultures were incubated at 37° C. and 7.5% CO2 in a humidified atmosphere for 8 to 13 days and monitored closely for colony growth using an inverted microscope. […]

As to `COc1ccc(-c2ccc3cc(C(=O)O)ccc3c2)cc1C12CC3CC(CC(C3)C1)C2` [Adapalene], the IC50 turned out to be 5.42 µM in assay [1] (Homo sapiens, 2D assay, 5637, 96 h treatment); 9.91 µM in assay [2] (Homo sapiens); 6 µM in assay [3] (Homo sapiens); 14 µM in assay [4] (Homo sapiens); 3.33 µM in [5] (Homo sapiens, T-24, T24, 96 h treatment); 6.84 µM in assay [6] (Homo sapiens, geometric mean of five cell lines, read-out: IC50, Geo. Mean). In addition, the IC50 in assay [7] (Homo sapiens) is 9.72 µM; in assay [8] (Homo sapiens), 4.76 µM; in assay [9] (Homo sapiens), 12.8 µM; in assay [10] (Homo sapiens), 9.11 µM; in assay [11] (Homo sapiens) it was no less than 100 µM; in assay [12] (Homo sapiens, read-out: mean absolute IC50 value), 14 µM. Moreover, the IC50 in [12] (Homo sapiens, read-out: mean relative IC50 value) came to 7.37 µM; in assay [13] (Homo sapiens), 10.8 µM; in [14] (Homo sapiens) it was 3.44 µM. Also, in [6] (IC50 of T24 vs BXF 1352), the “difference between the most sensitive and most resistant cell line” value is given as 4 fold. Also, the “activity relative to mean IC50 (above average = individual IC50 value < 1/2 mean IC50)” value in assay [8] (BXF 1218) and in assay [11] (BXF T-24) was “above average activity” each time. The “IC50, Geo. Mean” value in assay [12] was 14.01 µM.

As for `N.N.[Cl][Pt][Cl]` [Cisplatin, cisplatin], the IC50 was found to be 9.71 µM in assay [1] (2D assay, BXF 5637, 96 h treatment); 9.53 µM in assay [2]; 7.08 µM in assay [3]; 17.1 µM in assay [4]; 4.15 µM in assay [5] (BXF T24, 96 h treatment); 8.57 µM in assay [6] (all cell lines tested, read-out: geometric mean absolute IC50 value). Besides, the IC50 came out at 3.97 µM in [7]; 5.36 µM in assay [8]; 8.65 µM in assay [9]; 10.1 µM in assay [10]; 52 µM in [11]; 9.93 µM in assay [12] (read-out: mean absolute IC50 value). Besides, the half-maximal inhibitory concentration (IC50) was 9.71 µM in assay [12] (read-out: mean relative IC50 value), 6.8 µM in assay [15], 6.09 µM in assay [13] and 77.4 µM in assay [14]. Further, in [7] (BXF 1036, based on relative IC50 values), the “activity relative to mean IC50 (above average = individual IC50 value < 1/2 mean IC50)” value is on record as “above average activity”. Also, in [12], the “IC50, Geo. Mean” value amounted to 9.93 µM. Besides, in [12] (responding tumor models), the “Bottom plateaus of the concentration-effect curves” value is less than 10%.
